Assay: refractive index (other wavelength) (dimensionless); xn = mol fraction of the nth substance listed
Conditions: 318.15 K, 101 kPa, Liquid, Standard Abbe refractometry

CC(C)OC(C)C [diisopropyl ether] + CO
refractive index
Conditions	Wavelength=486.1 nm	Wavelength=546.1 nm	Wavelength=587.6 nm	Wavelength=589.3 nm	Wavelength=632.8 nm	Wavelength=644 nm	Wavelength=706.5 nm
x2 = 0	–	1.35556	1.35416	1.35411	1.3529	1.35259	1.3512
x2 = 0.0423	–	1.35556	1.35414	1.35409	1.35285	1.35256	1.35117
x2 = 0.0424	–	1.35551	1.3541	1.35405	1.35283	1.35253	1.35116
x2 = 0.082	–	1.35551	1.35411	1.35406	1.35285	1.35255	1.35115
x2 = 0.0822	–	1.35565	1.35423	1.35418	1.35295	1.35267	1.35128
x2 = 0.1171	–	1.35556	1.35417	1.35412	1.3529	1.35259	1.3512
x2 = 0.1271	–	1.35557	1.35415	1.3541	1.35289	1.3526	1.35122
x2 = 0.1827	1.35814	1.35541	1.354	1.35395	1.35273	1.35243	1.35105
x2 = 0.2162	1.35804	1.35526	1.35387	1.35382	1.35262	1.35233	–
x2 = 0.251	1.35753	1.35479	1.35338	1.35333	1.35213	1.35185	–
x2 = 0.3298	1.358	1.35528	1.35387	1.35292	1.35259	1.35229	1.35092
x2 = 0.3577	1.35689	1.35419	1.35274	1.35269	1.35147	1.3512	1.34984
x2 = 0.4497	1.35572	1.35303	1.35162	1.35157	1.35038	1.3501	1.34871
x2 = 0.4525	1.35631	1.3537	1.35228	1.35223	1.35098	1.35071	1.34936
x2 = 0.522	1.35398	1.35136	1.34995	1.34989	1.34869	1.34842	1.34709
x2 = 0.5543	1.35305	1.35042	1.34905	1.349	1.34779	1.34751	1.34616
x2 = 0.609	1.35085	1.34818	1.34684	1.3468	1.34566	1.34538	1.34405
x2 = 0.6529	1.34936	1.34672	1.34534	1.34529	1.34413	1.34386	1.34255
x2 = 0.7504	1.34529	1.34271	1.34138	1.34133	1.34018	1.3399	1.33858
x2 = 0.804	1.33919	1.33675	1.33541	1.33536	1.33421	1.33396	1.33271
x2 = 0.807	1.34094	1.33842	1.33709	1.33777	1.33591	1.33566	1.33438
x2 = 0.8727	1.3379	1.33543	1.33411	1.33406	1.33294	1.33269	1.33146
x2 = 0.9233	1.32983	1.32743	1.32614	1.3261	1.32501	1.32477	1.3236
x2 = 0.9253	1.33151	1.32907	1.32777	1.32772	1.32665	1.32641	1.32521
x2 = 0.9527	1.32842	1.32601	1.32474	1.32469	1.32362	1.32339	1.32222
x2 = 0.9773	1.32541	1.32301	1.32177	1.32173	1.32066	1.32042	1.3193
x2 = 0.989	1.3242	1.32177	1.32052	1.32048	1.31944	1.31921	1.31807
x2 = 0.9964	1.32328	1.3209	1.31967	1.31963	1.31859	1.31836	1.31724

From the NIST ThermoML archive (doi:10.1016/j.fluid.2014.09.014)
